The target of experiment [1] is T1, S7.1R (Dj-S7.1R) (Dugesia japonica, UniProt O15969).
T1 sequence (O15969 1-478): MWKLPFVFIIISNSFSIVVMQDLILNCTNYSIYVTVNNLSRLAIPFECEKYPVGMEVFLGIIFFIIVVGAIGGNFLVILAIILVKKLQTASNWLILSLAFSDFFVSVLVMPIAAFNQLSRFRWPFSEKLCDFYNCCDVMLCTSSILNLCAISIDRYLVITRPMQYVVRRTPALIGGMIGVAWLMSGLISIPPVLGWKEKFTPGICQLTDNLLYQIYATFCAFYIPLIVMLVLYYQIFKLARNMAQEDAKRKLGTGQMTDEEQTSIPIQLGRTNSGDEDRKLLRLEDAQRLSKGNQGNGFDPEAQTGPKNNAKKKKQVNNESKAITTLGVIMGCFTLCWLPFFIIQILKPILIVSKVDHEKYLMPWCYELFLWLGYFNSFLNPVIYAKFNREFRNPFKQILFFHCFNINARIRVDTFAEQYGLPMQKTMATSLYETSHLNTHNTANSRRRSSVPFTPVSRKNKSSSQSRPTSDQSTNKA
The experiment can be described thus: GloSensor cAMP luminescence in transfected HEK293 cells, peak amplitude. It counts as cell-based.

The target of experiment [2] is T1, S7.1R (Dj-S7.1R). Format: cell-based.

The structures appear in SMILES notation.

At S7.1R (Dj-S7.1R) [1], `NCCc1c[nH]c2ccc(O)cc12` [5-HT] showed an EC50 of 82 ± 5 nM.
Take `CC(C)C[C@H]1C(=O)N2CCC[C@H]2[C@]2(O)O[C@](NC(=O)[C@@H]3C=C4c5cccc6[nH]c(Br)c(c56)C[C@H]4N(C)C3)(C(C)C)C(=O)N12` [bromocriptine]: at S7.1R (Dj-S7.1R) [2], 1800 ± 500 nM corresponded to half-maximal inhibition (IC50).

Broadly, the EC50 is the concentration needed to bring the measured effect to its halfway point. As a reminder, the IC50 is the concentration that gives 50% inhibition. High values mean weaker potency in that assay, low ones greater potency in that assay.

Values taken from publication PMC5196488 (International Journal for Parasitology: Drugs and Drug …, 2016).
